What all share (format): cell-based, human
Assay [1] has as its system HeLa cells. Description: Primary screening: overall EGFP relative fluorescence activity per well, fluorescence microplate reader, 96-well plates. Conditions: values under 0.8 = pro-apoptotic and/or necrotic. The text has this: A representative primary screening with standard experimental set-up, where 16 commercially available anti-cancer drugs have been tested on five different EGFP expressing cell lines (HeLa, KB, A20, Ramos and Jurkat) in 96-well microtiter plates is shown in FIG. 2. Differential susceptibility regarding induction of apoptosis and/or necrosis after treatement with 5-Fluorouracil (5-FU), Gemzar, Methotrexate, Eloxantin, Detimedac, Endoxan, Paraplatin, Navelbine, Velbe, Taxotere, Taxol, Adriblastin, Bleomycin, Campto, Etopophos and Farmorubicin is shown. Measurements after 24 h and 48 h were performed with a fluorescence microplate reader, which measures the overall fluorescence activity in a single well. Used compound concentrations are indicated by a fraction of the original concentration.
The setting of a cut-off value, corresponding to 0.8 in this case, allows the clear discrimination between two main groups of different activities. […] According to these intermediate values between 0 and 0.8 measured by a fluorescence microplate reader, it can hardly be discriminated between the subpopulations of apoptotic and necrotic cells within the same well. […]
Immediately after the addition of the compounds to the cells the zero fluorescence value (t=0 h) was determined by using a fluorescence microplate reader in order to be able to normalize the fluorescence activities. […]

In assay [2] the test system is HeLa cells. Description: Secondary screening: FACS analysis discriminating apoptotic and necrotic activity of anti-cancer drugs. Conditions: for necrotic activity (FACS histograms): necrosis evident after exposure longer than 24 h, followed up to 48 h, Navelbine, Velbe, Campto 1/1000 diluted, Adriblastin 1/2000 diluted. From the text:
For this purpose HeLa cells have been treated with typical anti-cancer drugs of different mode of actions. Navelbine and Velbe, two typical representatives of microtubules interfering drugs and Adriblastin and Campto, topo-isomerase inhibitors, which interfere with DNA synthesis.
Arrows indicate regions with either necrotic cells (left arrow) or apoptotic cells (middle arrow) or proliferating/living cells (right arrow). […] This fact became evident after exposure of the cells for longer than 24 h.
HeLa cells have been treated with typical anti-cancer drugs of different mode of actions. Navelbine and Velbe, two typical representatives of microtubules interfering drugs and Adriblastin and Campto, topo-isomerase inhibitor, which interfere with DNA synthesis. Histograms of FACS analysis of cells treated either with Navelbine (1/1000 diluted), Velbe (1/1000 diluted), Adriblastin (1/2000 diluted) and Campto (1/1000 diluted) are shown in FIG. 4. Arrows indicate regions with either necrotic cells (left arrow), apoptotic cells (middle arrow) and proliferating cells (right arrow). […] This fact became evident after exposure of the cells for longer than 24 h.

Another assay deals with JurkatGFP cells. Description: Anti-apoptotic activity after induction of apoptosis by serially diluted soluble FasL, fluorescence microplate reader. Conditions: 24 h incubation, compared with control peptide zFA. The text has this: The activity of an anti-apoptotic compound, e.g. the pan caspase inhibitor zVADfmk, has been tested on JurkatGFP cells after induction of apoptosis by serially diluted soluble FasL and measured by a fluorescence microplate reader. […] The bars indicate standard deviations, which have been determined by measuring 6 single values for each datapoint.

Peptide text beside a SMILES is read from it. * marks the point of attachment. Cbz = O=C(OCc1ccccc1)*; CH2F = FC*

As to `COc1cccc2c1C(=O)c1c(O)c3c(c(O)c1C2=O)C[C@@](O)(C(=O)CO)C[C@@H]3O[C@H]1C[C@H](N)[C@H](O)[C@H](C)O1` [Adriblastin], the “relative fluorescence activity (intermediate value, cut-off 0.8)” value with HeLa cells [1] (highest concentration 1/5 k of original concentration) is listed as 0.53. Also, the “necrotic activity (FACS histograms)” value with HeLa cells [2] is given as “do not show any tendency for necrotic activity”. Besides, the “apoptotic activity (FACS histograms)” value in the assay on HeLa cells [2] (single-cell flow cytometry) was “only induce apoptosis”.
In the case of `CC[C@]1(O)C[C@@H]2CN(CCc3c([nH]c4ccccc34)[C@@](C(=O)OC)(c3cc4c(cc3OC)N(C)[C@H]3[C@@](O)(C(=O)OC)[C@H](OC(C)=O)[C@]5(CC)C=CCN6CC[C@]43[C@@H]65)C2)C1` [Velbe], in the assay on HeLa cells [2], the “necrotic activity (FACS histograms)” value is reported as “strong tendency to induce necrosis”.
Still for that read-out and setting: the same measure for `CCc1c2c(nc3ccc(OC(=O)N4CCC(N5CCCCC5)CC4)cc13)-c1cc3c(c(=O)n1C2)COC(=O)[C@]3(O)CC` [Campto]: “do not show any tendency for necrotic activity”.
Take `CCC1=C[C@@H]2CN(C1)Cc1c([nH]c3ccccc13)[C@@](C(=O)OC)(c1cc3c(cc1OC)N(C)[C@H]1[C@@](O)(C(=O)OC)[C@H](OC(C)=O)[C@]4(CC)C=CCN5CC[C@]31[C@@H]54)C2` [Navelbine]: in the assay on HeLa cells [1] (highest concentration 1/10 k of original concentration), the “relative fluorescence activity (intermediate value, cut-off 0.8)” value stood at 0.49. The “necrotic activity (FACS histograms)” value in the assay with HeLa cells [2] is “strong tendency to induce necrosis”.
For the compound `COC(=O)C[C@H](NC(=O)[C@H](C)NC(=O)[C@@H](NC(=O)OCc1ccccc1)C(C)C)C(=O)CF` [zVAD] (Cbz-Val-Ala-Asp(OMe)-CH2F), in the assay with JurkatGFP cells, the “anti-apoptotic effect on the apoptotic activity of FasL” value is “clear inhibitory anti-apoptotic effect”.

Source of the values: patent publication US20050130237A1, “High throughput screening method for compounds with non-, pro-, or anti-apoptotic or proliferative or necrotic activity” (priority 2002, published 2005).
